# Measurements as given in ChEMBL document CHEMBL5661943, “ASAP - In vitro antiviral effect” (2024).
# Values joined by “and” are separate entries in the source; they are usually repeats but may differ in a detail not shown here. Identical values can stand only once.
# How the values were obtained:
# dengue virus type 2 [1] = experiment: Functional CPE-based assay to measure dose dependent changes in antiviral-drug inhibitory efficacy against Dengue virus type 2 New Guinea C in Huh7 cells. Cells are treated with antiviral candidates that are serially diluted. EC50 is reported via analysis of MTT/MTS assay as a readout of CPE. The assay has been performed by National Institute of Allergy and Infectious Diseases.; type: organism-based, Homo sapiens; conditions: Huh-7
# Zika virus [2] = experiment: EC50 is reported via analysis of immunofluorescence staining. The assay has been performed by Icahn School of Medicine at Mount Sinai.; type: functional, organism-based, Chlorocebus sabaeus, VeroE6/TMPRSS2
# dengue virus type 2 [3] = experiment: (§1) Functional immunofluorescence assay to measure dose dependent changes in antiviral-drug inhibitory efficacy against Dengue virus type 2 Thailand/16681/84 in Vero E6/TMPRSS2 cells (cotreated with P-gp inhibitor, Elacridar). Cells are treated with antiviral candidates that are serially diluted, following infection, cells are fixed. EC50 is reported via analysis of immunofluorescence staining. The assay has been performed by Icahn School of Medicine at Mount Sinai.; type: organism-based, Chlorocebus sabaeus, VeroE6/TMPRSS2; conditions: Dengue virus, VeroE6/TMPRSS2; for EC90: Baseline response 0 %, Maximum response 100 %, P-gp concentration 2 uM, P-gp inhibitor Elacidar
# Zika virus [4] = experiment: as §1, with “Zika” for “Dengue”, “PRVABC59” for “type 2 Thailand/16681/84”, “cells.” for “cells (cotreated with P-gp inhibitor, Elacridar).”; type: organism-based, Chlorocebus sabaeus; conditions: for EC50: VeroE6/TMPRSS2
# dengue virus type 2 [5] = experiment: as §1, with “cells.” for “cells (cotreated with P-gp inhibitor, Elacridar).”; type: organism-based, Chlorocebus sabaeus; conditions: for EC50: VeroE6/TMPRSS2
# Zika virus [6] = experiment: (§2) Functional CPE-based assay to measure dose dependent changes in antiviral-drug inhibitory efficacy against Zika virus MR766 in Vero E6 miRFP670 cells. Cells are treated with antiviral candidates that are serially diluted. EC50 is reported via analysis of MTS assay as a readout of CPE. The assay has been performed by KU Leuven.; type: organism-based, Chlorocebus sabaeus, Vero C1008; conditions: Zika virus; for EC50: Vero C1008; for EC90: Vero C1008, Baseline response 0 %, Maximum response 100 %
# Zika virus [7] = experiment: as §2, with “cells (cotreated with P-gp inhibitor, CP100356).” for “cells.”; type: organism-based, Chlorocebus sabaeus, Vero C1008; conditions: Zika virus, Vero C1008
# dengue virus type 2 [8] = experiment: Functional assay to measure dose dependent changes in antiviral-drug inhibitory efficacy against Dengue virus type 2 New Guinea C in Vero E6 miRFP670 cells (cotreated with P-gp inhibitor, CP100356). Cells are treated with antiviral candidates that are serially diluted, following infection, cells are fixed. EC50 is reported via analysis of fluorescence intensity using high-content imager. The …; type: organism-based, Chlorocebus sabaeus, Vero C1008; conditions: for EC90: Baseline response 0 %, Maximum response 100 %, P-gp concentration 500 nM, P-gp inhibitor CP100356
smiles,measurement,setting,value
NCc1cccc(NC(=O)[C@@H](NC(=O)OCc2ccccc2)c2ccc(OCc3ccccc3)cc2)c1,EC50,dengue virus type 2 [1],> 18 µM
NCCCc1cccc(NC(=O)c2cc(Cl)cc(NC(=O)OCc3ccccc3)c2)n1,EC50,"Zika virus [2]; Zika virus, VeroE6/TMPRSS2",0.762 µM
same,EC90,"Zika virus [2]; Zika virus, VeroE6/TMPRSS2, Baseline response 0 %, Hill slope -0.324, Maximum measured 72.025 %, Maximum response 100 %, Minimum measured 4.462 %, P-gp concentration 2 uM, R squared 0.463, P-gp inhibitor Elacidar",> 16.7 µM
same,EC50,dengue virus type 2 [3],> 5.56 µM
same,EC90,"dengue virus type 2 [3]; Hill slope -0.245, Maximum measured 101.026 %, Minimum measured 51.347 %, R squared 0.141",> 5.56 µM
same,EC50,Zika virus [4],> 50 µM
same,EC90,"Zika virus [4]; VeroE6/TMPRSS2, Maximum measured 444.624 %, Minimum measured 59.048 %",> 50 µM
same,EC50,dengue virus type 2 [5],< 0.023 µM
same,EC90,"dengue virus type 2 [5]; VeroE6/TMPRSS2, Baseline response 0 %, EC90 CI (lower) 0 uM, EC90 CI (upper) 0.069 uM, Hill slope -0.47, Maximum measured 66.667 %, Maximum response 100 %, Minimum measured 7.762 %, R squared 0.244",2.12 µM
CCCCCC(=O)N[C@H](C(=O)NCc1cccc(CN)c1)c1ccc(OCc2ccccc2)cc1,EC50,dengue virus type 2 [1],> 18 µM
CCCCCC(=O)N[C@H](C(=O)N1CCCCC1)c1ccc(OCc2ccccc2)cc1,EC50,dengue virus type 2 [1],> 19 µM
Cc1ccc(NC(=O)c2cc(Cl)cc(NC(=O)OCc3ccccc3)c2)cc1CN,EC90,"Zika virus [2]; Zika virus, VeroE6/TMPRSS2, Maximum measured 108.754 %, Minimum measured 39.323 %, P-gp concentration 2 uM, P-gp inhibitor Elacidar",> 5.56 µM
same,EC90,"Zika virus [2]; Zika virus, VeroE6/TMPRSS2, Baseline response 0 %, Hill slope -0.897, Maximum measured 104.466 %, Maximum response 100 %, Minimum measured 2.423 %, P-gp concentration 2 uM, R squared 0.573, P-gp inhibitor Elacidar",> 5.56 µM
same,EC50,Zika virus [2]; veroe6/tmprss2,0.903 µM and > 5.56 µM
same,EC50,dengue virus type 2 [3],0.532 µM
same,EC90,"dengue virus type 2 [3]; Hill slope -0.692, Maximum measured 108.544 %, Minimum measured 11.231 %, R squared 0.808",> 5.56 µM
same,EC50,Zika virus [6],> 3.12 µM
same,EC90,"Zika virus [6]; Hill slope 16.084, Maximum measured 41.192 %, Minimum measured -3.993 %, R squared 0.961",> 3.12 µM
same,EC50,Zika virus [4],> 50 µM
same,EC90,"Zika virus [4]; VeroE6/TMPRSS2, Maximum measured 627.464 %, Minimum measured 75.729 %",> 50 µM
same,EC50,dengue virus type 2 [5],< 0.023 µM
same,EC90,"dengue virus type 2 [5]; VeroE6/TMPRSS2, Baseline response 0 %, Hill slope -0.25, Maximum measured 56.738 %, Maximum response 100 %, Minimum measured 21.854 %, R squared 0.324",> 5.56 µM
same,EC50,Zika virus [7],2.61 µM
same,EC90,"Zika virus [7]; Baseline response 0 %, Hill slope 6.556, Maximum measured 76.39 %, Maximum response 100 %, Minimum measured 1.967 %, P-gp concentration 500 nM, R squared 0.915, P-gp inhibitor CP100356",> 3.12 µM
same,EC90,"dengue virus type 2 [8]; EC90 CI (lower) 0 uM, EC90 CI (upper) Could not be calculated, confidence interval too large, Hill slope -15.095, Maximum measured 108.434 %, Minimum measured 1.527 %, R squared 0.917",3.71 µM
same,EC90,"dengue virus type 2 [8]; Hill slope -19.938, Maximum measured 107.168 %, Minimum measured 6.341 %, R squared 0.876",1.73 µM
same,EC50,dengue virus type 2 [8]; vero c1008,3.21 µM and 1.55 µM
NCCc1cccc(NC(=O)[C@H]2[C@H]3CCCCC[C@H]3[C@H]2NC(=O)OCc2ccccc2)c1,EC50,"Zika virus [2]; Zika virus, VeroE6/TMPRSS2",1.51 µM
same,EC90,"Zika virus [2]; Zika virus, VeroE6/TMPRSS2",27.9 µM
same,EC50,dengue virus type 2 [3],0.852 µM
same,EC90,"dengue virus type 2 [3]; Hill slope -0.607, Maximum measured 105.284 %, Minimum measured 41.503 %, R squared 0.471",> 1.85 µM
same,EC50,Zika virus [6],> 50 µM
same,EC90,"Zika virus [6]; Hill slope 0.101, Maximum measured 6.245 %, Minimum measured -3.134 %, R squared 0.013",> 50 µM
same,EC50,Zika virus [4],16.3 µM
same,EC90,"Zika virus [4]; VeroE6/TMPRSS2, Baseline response 0 %, Hill slope -67.816, Maximum measured 128.901 %, Maximum response 100 %, Minimum measured 6.251 %, R squared 0.855",16.9 µM
same,EC50,dengue virus type 2 [5],> 1.85 µM
same,EC90,"dengue virus type 2 [5]; VeroE6/TMPRSS2, Maximum measured 147.779 %, Minimum measured 82.782 %",> 1.85 µM
same,EC50,"dengue virus type 2 [8]; Dengue virus, Vero C1008",8.83 µM
same,EC90,"dengue virus type 2 [8]; Dengue virus, Vero C1008, EC90 CI (lower) 4.071 uM, EC90 CI (upper) 8.838 uM, Hill slope -5.677, Maximum measured 107.479 %, Minimum measured 11.429 %, R squared 0.889",13 µM
COc1cc(Cc2c(-c3ccc(F)cc3)noc2C)nc(N2CCNCC2)n1,EC50,dengue virus type 2 [1],> 18 µM
